According to PMC11748363, “Antimicrobial and Antiproliferative Properties of 2‐Phenyl‐N‐(Pyridin‐2‐yl)acetamides” (Chemical Biology & Drug Design, 2025):
In brackets after ≈: the same amount, converted by molar mass. Like-named read-outs stand apart in the source and are kept apart here.

What was measured:
[1] = system: Mycobacterium tuberculosis H37Ra; test: Antimycobacterial microdilution broth MIC (resazurin), Mtb H37Ra; format: cell-based; details: for MIC: Mycobacterium tuberculosis, H37RA, read-out: MIC Mtb H37Ra; for SI (selectivity index): SI = HepG2 IC50 (μM)/MIC MtbH37Ra (μM), calculated for compounds with MIC ≤ 31.25 μg/mL
[2] = system: Mycolicibacterium smegmatis DSM 43465; test: Antimycobacterial microdilution broth MIC (resazurin), M. smegmatis; format: cell-based; details: DSM43465, read-out: MIC M. smegmatis
[3] = system: Mycolicibacterium aurum DSM 43999; test: Antimycobacterial microdilution broth MIC (resazurin), M. aurum; format: cell-based; details: DSM43999, read-out: MIC M. aurum
HepG2 cell line = test: Cytotoxicity CellTiter 96, HepG2; format: cell-based, human; details: Homo sapiens, HepG2, 24 h, 24 h incubation; ^c compound precipitated in the testing medium; ^d over the limit of tested concentrations
[4] = system: Staphylococcus aureus CCM 4223, ATCC 29213; test: Antibacterial microdilution broth MIC, SA; format: cell-based; details: Staphylococcus aureus
[5] = system: Staphylococcus aureus subsp. aureus CCM 4750, ATCC 43300 (MRSA); test: Antibacterial microdilution broth MIC, MRSA; format: cell-based; details: Staphylococcus aureus
[6] = system: Staphylococcus epidermidis CCM 4418, ATCC 12228; test: Antibacterial microdilution broth MIC, SE; format: cell-based
[7] = system: Enterococcus faecalis CCM 4224, ATCC 29212; test: Antibacterial microdilution broth MIC, EF; format: cell-based
[8] = system: Escherichia coli CCM 3954, ATCC 25922; test: Antibacterial microdilution broth MIC, EC; format: cell-based
[9] = system: Acinetobacter baumannii DSM 30007, ATCC 19606; test: Antibacterial microdilution broth MIC, ACI; format: cell-based
[10] = system: Pseudomonas aeruginosa CCM 3955, ATCC 27853; test: Antibacterial microdilution broth MIC, PA; format: cell-based
[11] = system: Candida albicans CCM 8320, ATCC 24433; test: Antifungal microdilution broth MIC, CA
[12] = system: Candida krusei CCM 8271, ATCC 6258; test: Antifungal microdilution broth MIC, CK; details: Pichia kudriavzevii
[13] = system: Candida parapsilosis CCM 8260, ATCC 22019; test: Antifungal microdilution broth MIC, CP; details: Lodderomyces parapsilosis
[14] = system: Candida tropicalis CCM 8264, ATCC 750; test: Antifungal microdilution broth MIC, CT
[15] = system: Aspergillus fumigatus ATCC 204305; test: Antifungal microdilution broth MIC, AF
[16] = system: Lichtheimia corymbifera CCM 8077; test: Antifungal microdilution broth MIC, LC
[17] = system: Trichophyton interdigitale CCM 8377, ATCC 9533; test: Antifungal microdilution broth MIC, TI; details: Trichophyton interdigitale
[18] = system: Aspergillus flavus CCM 8363; test: Antifungal microdilution broth MIC, AFla
[19] = system: Klebsiella pneumoniae CCM 4415, ATCC 10031; test: Antibacterial microdilution broth MIC, KP
[20] = ATCC204305, 24 h, read-out: MIC AF 24h
[21] = ATCC204305, 48 h, read-out: MIC AF 48h
[22] = CCM8077, 24 h, read-out: MIC LC 24h
[23] = CCM8077, 48 h, read-out: MIC LC 48h
[24] = CCM8363, 24 h, read-out: MIC AFla 24h
[25] = CCM8363, 48 h, read-out: MIC AFla 48h

| SMILES | MIC ([1]; Calculated from MIC (μg/mL)) [µM] | MIC [1] [µg/mL] | MIC [2] [µg/mL] | MIC [3] [µg/mL] | IC50 (HepG2 cell line) [µM] | MIC ([4]; 24 h, read-out: MIC SA 24h) [µM] | MIC ([4]; 48 h, read-out: MIC SA 48h) [µM] | MIC ([5]; 24 h, read-out: MIC MRSA 24h) [µM] | MIC ([5]; 48 h, read-out: MIC MRSA 48h) [µM] | MIC ([6]; 24 h, read-out: MIC SE 24h) [µM] | MIC ([6]; 48 h, read-out: MIC SE 48h) [µM] | MIC ([7]; 24 h, read-out: MIC EF 24h) [µM] | MIC ([7]; 48 h, read-out: MIC EF 48h) [µM] | MIC ([8]; 24 h, read-out: MIC EC 24h) [µM] | MIC ([8]; 48 h, read-out: MIC EC 48h) [µM] | MIC ([9]; 24 h, read-out: MIC ACI 24h) [µM] | MIC ([9]; 48 h, read-out: MIC ACI 48h) [µM] | MIC ([10]; 24 h, read-out: MIC PA 24h) [µM] | MIC ([10]; 48 h, read-out: MIC PA 48h) [µM] | MIC ([11]; 24 h, read-out: MIC CA 24h) [µM] | other results |
| --- | --- | --- | --- | --- | --- | --- | --- | --- | --- | --- | --- | --- | --- | --- | --- | --- | --- | --- | --- | --- | --- |
| O=C(Cc1ccccc1C(F)(F)F)Nc1ccc(Cl)cn1 [Compound 23] | 99.3 | 31.2 | > 500 | > 500 | 201 | > 500 | > 500 | > 500 | > 500 | > 500 | > 500 | > 500 | > 500 | > 500 | > 500 | > 500 | > 500 | > 500 | > 500 | > 500 | SI (selectivity index) [1]: 2.0; MIC ([11]; 48 h, read-out: MIC CA 48h): > 500 µM; MIC ([12]; 24 h, read-out: MIC CK 24h): > 500 µM; MIC ([12]; 48 h, read-out: MIC CK 48h): > 500 µM; MIC ([13]; 24 h, read-out: MIC CP 24h): > 500 µM; MIC ([13]; 48 h, read-out: MIC CP 48h): > 500 µM; MIC ([14]; 24 h, read-out: MIC CT 24h): > 500 µM; MIC ([14]; 48 h, read-out: MIC CT 48h): > 500 µM; MIC [15, 20]: > 500 µM; MIC [15, 21]: > 500 µM; MIC [16, 22]: > 500 µM; MIC [16, 23]: > 500 µM; MIC ([17]; 72 h, read-out: MIC TI 72h): 500 µM (≈ 157 µg/mL); MIC ([17]; 120 h, read-out: MIC TI 120h): 500 µM (≈ 157 µg/mL); MIC [18, 24]: > 500 µM; MIC [18, 25]: > 500 µM; MIC KP 24h [19]: > 500 µM; MIC KP 48h [19]: > 500 µM |
| O=C(Cc1ccccc1Cl)Nc1cccc(Cl)n1 [Compound 15, 2-(2-chlorophenyl)-N-(6-chloropyridin-2-yl)acetamide] | 111 | 31.2 | > 500 | 250 (≈ 889 µM) | > 100 | > 500 | > 500 | > 500 | > 500 | > 500 | > 500 | > 500 | > 500 | > 500 | > 500 | > 500 | > 500 | > 500 | > 500 | > 500 | SI (selectivity index) [1]: > 0.9; MIC ([11]; 48 h, read-out: MIC CA 48h): > 500 µM; MIC ([12]; 24 h, read-out: MIC CK 24h): 500 µM (≈ 141 µg/mL); MIC ([12]; 48 h, read-out: MIC CK 48h): 500 µM (≈ 141 µg/mL); MIC ([13]; 24 h, read-out: MIC CP 24h): > 500 µM; MIC ([13]; 48 h, read-out: MIC CP 48h): > 500 µM; MIC ([14]; 24 h, read-out: MIC CT 24h): > 500 µM; MIC ([14]; 48 h, read-out: MIC CT 48h): > 500 µM; MIC [15, 20]: > 500 µM; MIC [15, 21]: > 500 µM; MIC [16, 22]: > 500 µM; MIC [16, 23]: > 500 µM; MIC ([17]; 72 h, read-out: MIC TI 72h): 500 µM (≈ 141 µg/mL); MIC ([17]; 120 h, read-out: MIC TI 120h): 500 µM (≈ 141 µg/mL); MIC [18, 24]: > 500 µM; MIC [18, 25]: > 500 µM; MIC KP 24h [19]: > 500 µM; MIC KP 48h [19]: > 500 µM |
| COc1ccc(CC(=O)Nc2ccc(Cl)cn2)cc1 [Compound 11, 2-(4-methoxyphenyl)-N-(5-chloropyridin-2-yl)acetamide] | > 1800 | > 500 | > 500 | > 500 | 399 | 250 (≈ 69.2 µg/mL) | 500 (≈ 138 µg/mL) | > 500 | > 500 | > 500 | > 500 | > 500 | > 500 | > 500 | > 500 | > 500 | > 500 | > 500 | > 500 | > 500 | MIC ([11]; 48 h, read-out: MIC CA 48h): > 500 µM; MIC ([12]; 24 h, read-out: MIC CK 24h): > 500 µM; MIC ([12]; 48 h, read-out: MIC CK 48h): > 500 µM; MIC ([13]; 24 h, read-out: MIC CP 24h): > 500 µM; MIC ([13]; 48 h, read-out: MIC CP 48h): > 500 µM; MIC ([14]; 24 h, read-out: MIC CT 24h): > 500 µM; MIC ([14]; 48 h, read-out: MIC CT 48h): > 500 µM; MIC [15, 20]: > 500 µM; MIC [15, 21]: > 500 µM; MIC [16, 22]: > 500 µM; MIC [16, 23]: > 500 µM; MIC ([17]; 72 h, read-out: MIC TI 72h): > 500 µM; MIC ([17]; 120 h, read-out: MIC TI 120h): > 500 µM; MIC [18, 24]: > 500 µM; MIC [18, 25]: > 500 µM; MIC KP 24h [19]: > 500 µM; MIC KP 48h [19]: > 500 µM |
